The subject of one data set is AMPK. Nature of the data set: Immunoblotting, AMPK and p-AMPK. The data set is classed as cell-based, mouse. As to conditions: early and terminal differentiation processes. Here is the method:
(§1) Primary antibodies which include AMPK-amAb, and Phospho-AMPKa(p-AMPKa) (Thr172) mAb, Acetyl-CoA Carboxylase (ACC) mAb, fatty acid synthase mAb RAs-related Nuclear protein (Ran) pAb, PPARc mAb, and C/EBPa pAb were all obtained from Cell Signaling Technology (Danvers, MA, USA). They were diluted by 1000 times for immunoblotting analyses.
(§2) At day 3 or day 8, cells are harvested with scraper and homogenized with lysis buffer containing 0.5 mM PMSF, 1 mM mini-complete protease inhibitor cocktail (Sigma, St. Louis, MO, USA) and phosphatase inhibitor cocktail (Sigma, St. Louis, MO, USA). Lysates are syringed with 26 gauge ½ in. needles on ice and then applied for centrifugation at 14,000g for 15 min at 4° C. Protein concentration of cell lysates are determined by using Protein and Protein Broad Range (BR) Assay Kits (Thermofisher, Waltham, MA USA) according to the venture's protocol. Lysates are then stored at −80° C. or immediately are subjected to sodium dodecyl sulfate polyacrylamide gel electrophoresis (SDS-PAGE). For the SDS-PAGE, cell lysates are mixed with loading buffer and heated at 95° C. for 5 min prior to electrophoresis. […] Quantification is performed by measuring band intensity using ImageJ software and calculating the ratio of protein of interesting to RAN the internal loading control.
In general terms: In western blotting, separated proteins are transferred to a membrane and probed.

The test system of the next data set is C/EBPα. Briefly: Immunoblotting, C/EBPα expression. The format is cell-based, mouse. The settings on record: early treatment, day 3. Here is the method:
as §1, §2

The test system of the next data set is ACC. Nature of the data set: Immunoblotting, ACC expression. The data set is classed as cell-based, mouse. The settings on record: late phase treatment group, day 8. On the procedure:
as §1, §2

Data set [1] concerns differentiating 3T3-L1 adipocytes. Briefly: Oil Red O staining, lipid accumulation. The data set is classed as cell-based, mouse. Here is the method:
Two days after confluence, designated as day 0, adipocyte differentiation was initiated by culturing the cells for three days in differentiation medium (DM) which contained 10 μg/mL insulin, 0.5 mM IBMX, and 1 μM dexamethasone in complete culture medium. At day 3, the medium was replaced with DMEM, containing 10 μg/mL insulin. The medium was changed every two days until day 8. Cells were harvested on day 3 or day 8.
For treatment, nobiletin and the mixture of 6- and 7-OH-nobiletin (M67N) in a 1:49 ratio were first dissolved in dimethyl sulphoxide (DMSO) to make stock solution (5 mM to 100 mM). (FIG. 20) The stock solution was then diluted by 1000 times with culture medium to designated concentrations. Cells cultured in full DMEM was set as negative control while cells treated with DM with 0.1% DMSO as positive control.
On day 8, cell layers were washed with 1×PBS and fixed with 10% paraformaldehyde (Sigma, St. Louis, MO, USA). After 15 minutes' fixation, the medium in each well was decanted and placed in a fume hood for complete dryness. Afterwards, cells were subjected to Oil Red O staining for 30 min, which was followed by immediate rinse in water. The intracellular lipid droplets were checked and pictures were captured on Olympus FSX100 Microscope. For the quantification of intracellular lipids, dyes were dissolved in 4% NP-40/isopropanol and the absorbance was measured at 520 nm by a microplate reader.

The subject of the next data set is PPARγ. Briefly: Immunoblotting, PPARγ expression. The data set is classed as cell-based, mouse. The settings on record: early treatment, day 3. Here is the method: as §1, §2
A further data set relates to 3T3-L1 cells. Nature of the data set: Flow cytometry with PI staining, cell cycle distribution. The format is cell-based, mouse. On the procedure: 3T3-L1 cells were seeded in six-well plates at a density of 3-5×10^5/well. After 2 days of confluency, cells were treated with DM in the absence or presence of several doses of nobiletin or […] for 24h. Both detached and adherent cells were harvested by trypsinization and washed with phosphate buffered saline (PBS). Cells were fixed with 70% ice cold ethanol and placed at 4° C. overnight. After removal of ethanol, cells were stained with propidium iodide containing RNAse ((Carlsbad, CA)) for 30 min in the dark. Fluorescence cells analysis was carried out by using an Accuri C6 flow cytometer. Data were processed using Flowjo_10 software. Each experiment was performed 3 times to reduce variance.

Data set [2] can be described thus: Effect of pH of fermented media on extracted content of M2 and M3 (stability). The data set is classed as physicochemical. Here is the method: Lastly, the fermented media was adjusted to pH 2.0, 5.0, 6.5, 7.0, 8.0 and 10.0 using HCl or NaOH. Subsequently, 3 extractions were conducted, and the sample was dried, weighed and analyzed using HPLC. The amount of extracted metabolites were compared and used to evaluate the effect of pH on extraction.

Broadly, the inhibition is the change of the read-out against control, counted positive when it falls.

Molecules are shown by their SMILES.

On to `COc1ccc(-c2cc(=O)c3c(OC)c(O)c(OC)c(OC)c3o2)cc1OC` [6-OH-nobiletin, 6-hydroxy-5,7,8,3′,4′-pentamethoxyflavone], for which, in the data set on AMPK, the “expression and phosphorylation of AMPK” value was “greatly enhanced”. Moreover, the “production of C/EBPα” value in the data set on C/EBPα is given as “greatly reduced”. Moreover, the “expression of ACC” value in the data set with ACC is reported as “significantly suppressed their expression”. Further, in data set [1] (15 μM, relative to positive control), the intracellular lipid content came to 69.8±2.1%. For the same molecule, the “decrease of lipid content” value in data set [1] (50 μM, early phase treatment (day 0 to day 3)) worked out at 50%. Besides, the “lipid formation / accumulation reduced to” value in data set [1] (50 μM, relative to positive control) is listed as 24.3±4.2%. The inhibition at 50 µM in data set [1] (Mus musculus, 3T3-L1, 50 μM, late-phase treatment (day 4 to day 8), read-out: inhibition of lipid accumulation) was 72%. Besides, in data set [1] (early phase day 0-3, late phase day 4-8), the “effect of early phase and late phase treatment on lipid accumulation” value is on record as “suppressed the lipid accumulation in a dose-dependent matter”. Further, the “effect on intracellular lipid accumulation” value in data set [1] (various concentrations, Oil Red O at day 8) is given as “obvious suppressive effect on intracellular lipid accumulation”. Moreover, the “expression level of PPARγ” value with PPARγ is reported as “dose-dependently suppressed”. Further, in the data set with 3T3-L1 cells (5 μM), the “cells in S phase” value worked out at 42%. Besides, the “preadipocytes in G2/M phase” value with 3T3-L1 cells (5 μM) came to 40%. The “population in G2/M phase” value in the data set with 3T3-L1 cells (50 μM) was determined as 20%. Also, the “population in S phase” value with 3T3-L1 cells (50 μM) came out at 60%. For the same molecule, the “effect on cell cycle progression” value in the data set on 3T3-L1 cells (serial doses in differentiation medium) was “significantly delayed the progression of the cell cycle and increased the S population in a dose-dependent manner”. In addition, the “total amount of extracted metabolite” value worked out at 123.9 ± 4.6 µg/mL in data set [2] (fermented media at pH 2.0 (first of four values, pH 2.0 to 7.0)); 125.6 ± 3.2 µg/mL in data set [2] (fermented media at pH 5.0 (second of four values)); 125.8 ± 1.9 µg/mL in data set [2] (fermented media at pH 6.5 (third of four values)); 125.9 ± 1.2 µg/mL in data set [2] (fermented media at pH 7.0 (fourth of four values)). For the same molecule, the “content of extracted metabolite” value is 110 ± 1.7 µg/mL in data set [2] (pH 8.0) and 109 ± 2.6 µg/mL in data set [2] (pH 10.0). In data set [2] (pH 8.0 and 10.0), the “stability at alkaline condition” value is recorded as “not stable at alkaline condition”.

The values are drawn from patent US20250032446A1, “METHODS AND COMPOSITIONS FOR THE BIOSYNTHESIS AND USE OF DEMETHYLATED POLYMETHOXY FLAVONES” (RUTGERS, THE STATE UNIVERSITY OF NEW JERSEY, priority 2021, published 2025).
